According to patent publication US20070293486A1, “Alpha-Keto Carbonyl Calpain Inhibitors” (SANTHERA PHARMACEUTICALS (SCHWEIZ) AG, priority 2004, published 2007):

Experiments:
[1] = test system: mdx mouse; experiment: Longterm treatment of mdx mice (muscle histology); assay type: in vivo; details: for adverse effects upon longterm treatment: longterm treatment every 2nd day i.p.
Method: The mdx mouse is a well established animal model for Duchenne Muscular Dystrophy (Bulfield G., Siller W. G., Wight P. A., Moore K. J., X chromosome-linked muscular dystrophy (mdx) in the mouse, Proc. Natl. Acad. Sci. USA., 1984, 81(4), 1189-1192). Selected compounds were tested in longterm treatments of mdx mice, according to the procedures described below.
Mouse strains: C57BL/10scsn and C57BL/10scsn mdx mouse strains were purchased at The Jackson Laboratory (ME, USA) and bred inhouse. Mouse males were sacrificed at the age of 3 or 7 weeks by CO2 asphyxiation.
Treatment: Compounds were dissolved in 50% PEG, 50% saline solution and applied by i.p. injection.
Histology: Tibialis anterior (TA), quadriceps (Quad), and diaphragm (Dia) muscles were collected and mounted on cork supports using gum tragacanth (Sigma-Aldrich, Germany). The samples were snap-frozen in melting isopentane and stored at −80° C. 12 μm thick cryosections of the mid-belly region of muscles were prepared. For staining, sections were air dried and fixed with 4% PFA in PBS for 5 minutes, washed 3 times with PBS and incubated over night at 4° C. in PBS containing 2 μg/ml Alexa Fluor ™ 488 conjugated wheat-germ agglutinin (WGA-Alexa, Molecular Probes, Eugene, Oreg., USA) to stain membrane-bound and extracellular epitopes and 1 μg/ml 4′,6-diamidino-2-phenylindole (DAPI; Molecular Probes) to stain nuclei.
Image acquisition and analysis: Fluorescence microscopy images of both labels were acquired using a digital camera (ColorView II, Soft Imaging System, Münster, Germany) coupled to a fluorescence microscope (Vanox S, Olympus, Tokyo, Japan). Combination of these two stainings to a composite image, assembling of several images to a complete image of the entire muscle cross-section and further semi-automated analysis was performed using the image analysis program AnalySIS (Soft Imaging System). Image analysis of 1200-2900 muscle fibers in each section was performed in three steps: 1) determination of the muscle fiber boundaries, 2) determination of the muscle fiber size, and 3) determination of the percentage of muscle fibers containing centralized nuclei. Six different geometrical parameters were tested for the determination of the muscle fiber size: (a) the “minimal feret” (the minimum distance of parallel tangents at opposing borders of the muscle fiber), (b) the “area”, (c) the “minimal inner diameter” (the minimum diameter through the center of the muscle fiber), (d) the “minimal diameter” (the minimum diameter of a muscle fiber for angles in the range 0° through 179° with step width 1°, (e) the “minimal outer diameter” (the minimum diameter through the muscle fiber from outer border to outer border), and (f) the “perimeter”. The variance coefficient of the muscle fiber size is defined as follows: variance coefficient=(standard deviation of the muscle fiber size/mean of the muscle fiber size of the section)*[…]. For statistical analysis of different variance coefficient values Mann-Whitney U test was used.

[2] = test system: cellular calpains in C2C12 myoblasts; experiment: Calpain Inhibition Assay in C2C12 Myoblasts; assay type: cell-based; details: read-out: Calp I IC50 Myoblast
Method: This assay is aimed at monitoring the ability of the substance to inhibit cellular calpains. C2C12 myoblasts are grown in 96-well plates in growth medium (DMEM, 20% foetal calf serum) until they reach confluency. The growth medium is then replaced by fusion medium (DMEM, 5% horse serum). 24 hours later the fusion medium is replaced by fusion medium containing the test substances dissolved in 1 μl DMSO. After 2 hours of incubation at 37° C. the cells are loaded with the calpain fluorogenic substrate Suc-Leu-Tyr-AMC at 400 μM in 50 μl of a reaction buffer containing 135 mM NaCl; 5 mM KCl; 4 mM CaCl2; 1 mM MgCl2; 10 mM Glucose; 10 mM HEPES pH 7.25 for 20 min at room temperature. The calcium influx, necessary to activate the cellular calpains, is evoked by the addition of 50 μl reaction buffer containing 20 μM of the calcium ionophore Br-A-23187 (Molecular Probes). The fluorescence of the cleavage product AMC is measured as described above during 60 min at 37° C. at intervals of 1 min. The IC50 values are determined as described above. Comparison of the IC50 determined in the enzymatic calpain inhibition assay to the IC50 determined in the C2C12 myoblasts calpain inhibition assay, allows to evaluate the cellular uptake or the membrane permeability of the substance.

[3] = 20 mg/kg every 2nd day i.p., 3 week old mice, 4 weeks treatment, diaphragm, vs vehicle mdx controls

Structure (SMILES)	decrease in the variance coefficient of the muscle fiber size in the Dia [1, 3] [%]	adverse effects upon longterm treatment [1]	IC50 [2] [nM]	decrease in the variance coefficient of the muscle fiber size in the Dia ([1]; 2 mg/kg every 2nd day i.p., diaphragm, vs vehicle mdx controls) [%]	reduction of the percentage of centralized nuclei in the Dia ([1]; 20 mg/kg every 2nd day i.p., diaphragm, vs vehicle mdx controls) [%]	decrease in the variance coefficient of the muscle fiber size in the Quad ([1]; 20 mg/kg every 2nd day i.p., quadriceps, vs vehicle mdx controls) [%]
CCNC(=O)C(=O)[C@H](Cc1ccc(Cl)cc1)NC(=O)[C@@H](NC(=O)[C@H](Cc1ccccc1)NC(=O)CCCCC1CCS[S+]1[O-])C(C)C (stereo partly drawn) [Example 2]	26	No prominent adverse effects	210			
CCNC(=O)C(=O)C(Cc1ccc(OC)cc1)NC(=O)C(CC(C)C)NC(=O)C(Cc1cccc2ccccc12)NC(=O)CCCCC1CCSS1 (stereo not drawn) [Example 637]	34	No prominent adverse effects	40	33	34	32
